In patent US20260248809A1, “ESTRADIOL PRODRUGS AND METHODS OF USE THEREOF” (UNIVERSITY OF MARYLAND, BALTIMORE, priority 2022, published 2026):
Entries after “also recorded” stand apart in the source; their conditions may differ.

Tests used:
male mice [1] = experiment: Subthreshold social defeat stress (SSDS) followed by social interaction test; format: in vivo, mouse
Description: (§1) Subthreshold social defeat stress: Retired CD1 breeders are singly housed and used as aggressors. Experimental mice are introduced to the home cage of an aggressor for 2 min to initiate the physical attack phase. Afterward, mice are transferred and housed on the opposite side of the aggressor, in the same cage separated by a perforated Plexiglass divider for 15 mins in order to maintain sensory contact. This process is repeated 3 times over a period of ~50 min.
(§2) Social Interaction: Mice are placed in a rectangular box (40 cm length×30 cm width×35 cm height; Stoelting, IL) divided into three compartments (two equal-sized end-chambers and a middle chamber) for five minute habituation phase (10-15 lux). After the habituation phase, two small wire cages are introduced into the two end chambers, one containing an unfamiliar, non-aggressive CD1 mouse and the other remaining empty. The amount of time mice spent sniffing each cage during the five-min test is assessed using CleverSys tracking software (CleverSys, Inc, Reston VA, USA).
(§3) For the chronic administration paradigms, silastic tubes (1.02 mm inner diameter×2.16 mm outer diameter) were filled with testosterone (10 mm) or 17β-Estradiol (E2; 1,3 and 10 mm; Sigma-Aldrich, St. Louis, MO, USA). Silastic implants were primed in 0.9% saline at 37° C. overnight prior to their subcutaneous use. Letrozole (1 mg/kg/day; Sigma-Aldrich, St. Louis, MO, USA) was dissolved in propylene glycol (MP Biomedicals, Santa Ana, CA, USA) and administered through ALZET minipumps (Model 1002, 0.25 μl/hour, 14 days; Cupertino, CA, USA). DHED (synthesized using previously described methods) was dissolved in 0.9% saline and administered through ALZET minipumps (Model 1002, 0.25 μl/hour, 14 days; Cupertino, CA, USA) at a dose of […]. Flutamide was administered through 1.5 mg slow-release subcutaneous pellets (Innovative Research of America, Sarasota, FL, USA). For acute administration, 17β-Estradiol (E2; 10 and […]) was dissolved in sesame oil (4 ml/kg, s.c.; Sigma-Aldrich, St. Louis, MO, USA).
(§4) Retired CD1 breeders were singly housed and used as aggressors. Two days prior to the start of the experiment, experimental mice were also singly housed. The stress procedure was performed using previously described methods. Briefly, experimental mice were introduced to the home cage of an aggressor for 2 min to initiate the physical attack phase. Afterward, mice were transferred and housed on the opposite side of the aggressor, in the same cage separated by a perforated Plexiglass divider for 15 mins in order to maintain sensory contact. This process was repeated 3 times over a period of ~50 min. Following the completion of the third cycle, mice were placed back in their home cages.
(§5) Acute E2 was administered 45 min prior to the initiation of stress or 5 min after the completion of stress. For the optogenetic stimulation, ChR2 and YFP-injected mice received a 4 Hz, 5 ms pulse width, 10-15 mW 470 nm light stimulation for 45 min prior to the initiation of stress. This stimulation paradigm was shown previously to increase synaptic transmission. The optogenetic set up consisted of an LED driver paired with a fiber-coupled LED light source attached to a bifurcated optogenetic path cable (400 μm, 0.49 NA; ThorLabs, Newton NJ, USA).
as §2, with “Social interaction was performed 24 hours following subthreshold social defeat or inescapable foot-shock stress. For the habituation phase, mice were” for “Social Interaction: Mice are”, “five minutes” for “five minute habituation phase”, “cages were” for “cages are”, “test was” for “test is”

male mice [2] = experiment: Subthreshold social defeat stress followed by female urine sniffing test (anhedonia); format: in vivo, mouse
Description: as §1
(§6) Female Urine Preference Test: is performed 24 hours after the social interaction test as using previously described methods. The amount of time mice spent interacting with a cotton-tipped applicator soaked in either fresh male or female mouse urine during a total of 3 minutes is analyzed by an experimenter blind to the experimental groups.
as §3, §4, §5
as §6, with “FUST procedure was” for “Female Urine Preference Test: is”, “and 48 hours after stress. FUST was performed” for “as”, “was” for “is”

[3] = Body, testis and seminal vesicle weights after hormonal treatments; format: in vivo, mouse
Description: as §3
Subcutaneous implantations were performed during the same time as the orchiectomies. The surgical area was thoroughly cleaned with Betadine solution (10% povidone-iodine surgical scrub) followed by 70% ethanol. A small, approximately 1-cm incision was made between the scapulae using a pair of small sterile surgical scissors. Hemostats were then inserted and spread laterally to the incision to create a cavity in the subcutaneous space in which ALZET mini-osmotic pumps or silastic implants were inserted for continuous drug/vehicle delivery. The skin was closed with suturing.

[4] = tested on: optically-induced postsynaptic currents (oPSC) in the NAc; experiment: Whole-cell patch clamp of optically-induced postsynaptic currents in NAc slices; parameters: species or system mouse; conditions: bath applied NBQX and APV together
Description: Mice (n=3 males) that were previously injected with ChR2 in the BLA were deeply anesthetized with isoflurane before decapitation and brain extraction. Coronal 250 μm thick sections were collected in ice cold 95% oxygen, 5% carbon dioxide-bubbled modified artificial cerebrospinal fluid (aCSF, 194 mM sucrose, 30 mM NaCl, 4.5 mM KCl, 1 mM MgCl2, 26 mM NaHCO3, 1.2 mM NaH2PO4, and 10 mM D-glucose) before incubating at 32° C. for 30 min in aCSF (124 mM NaCl, 4.5 mM KCl, 2 mM CaCl2), 1 mM MgCl2, 26 mM NaHCO3, 1.2 mM NaH2PO4, and 10 mM D-glucose). Slices were then stored at room temperature until recording.
Slices were hemisected, placed into a recording chamber, and perfused with temperature controlled aCSF (29-31° C.). NAc medium spiny neurons (MSNs) were visualized using infrared differential interference contrast light microscopy, Q-capture camera, and associated Pro 7 software. […] Optically evoked post synaptic currents (oPSC) were elicited by an optical fiber placed in the recording chamber that delivered 4 ms pulses of light (473 nm) every 20s for a total recording duration of 15 min. oPSCs were recorded using borosilicate glass pipettes (2-4 MΩ resistance) filled with Cesium Methanesulfonate internal solution (135 mM cesium methanesulfonate, 3 mM NaCl, 10 mM HEPES, 0.6 mM EGTA, 4 mM MgATP, 0.3 mM NaGTP, 5 mM QX-314C1, pH 7.2, 310 mOsm). […]

in vivo = conditions: male, C57BL/6J, mouse
Source text: Although these findings support a critical role for E2, and not testosterone itself, as the biologically active hormone mediating stress susceptibility in hypogonadal male mice, E2 replacement therapy cannot be considered as a viable treatment in human male veteran populations due to its peripheral side effects, including gynecomastia and erectile dysfunction. However, isolating the effects of E2 to the central nervous system would provide a viable therapy. […] As a next step in advancing this treatment, the oral bioavailability of DHED was assessed, comparing oral versus intravenous delivery routes.
Pharmacokinetic (PK) assessment of prodrugs. […] Generally, this PK study and analysis proceeds similarly to previous studies aimed at assessing the oral bioavailability of (2R,6R)-HNK. […] PK is performed using tandem liquid chromatography-mass spectrometry (LC-MS/MS) for quantification. […] Statistical significance is calculated using the unpaired t-test or Mann-Whitney U test for comparing AUC values. […] E2 levels are measured with liquid chromatography tandem mass spectrometry (LC-MS/MS) using standard methods. […] If levels of E2 are too low to be quantified via this measure, and to distinguish naturally-produced from DHED prodrug-produced E2, E2 levels can be quantitated at the femtomole level utilizing deuterium-labelled E2 standards and triple quadrupole mass spectrometry.

[5] = tested on: estrogen or other hormone receptors; conditions: cited from earlier work
rodents = conditions: high doses administered orally to rodents; cited from earlier work
[6] = tested on: progesterone receptor (PR) expression; conditions: rat, in vivo; cited from earlier work
galanin expression = conditions: rat, in vivo; cited from earlier work
C3 expression = conditions: rat, in vivo; cited from earlier work
[7] = in vivo; cited from earlier work
[8] = Pharmacokinetic assessment of the DHED-acetate prodrug, IV and PO; format: in vivo, mouse
Description: FIGS. 29A-29B illustrate the pharmacokinetic assessment of the DHED-acetate prodrug. The concentration levels of the DHED-acetate prodrug (FIG. 29A) and DHED (FIG. 29B) were measured in mice (n=3) after IV and PO administration of 5 mg/kg solution dose of DHED-acetate prodrug.
Pharmacokinetic (PK) assessment of prodrugs. […] Generally, this PK study and analysis proceeds similarly to previous studies aimed at assessing the oral bioavailability of (2R,6R)-HNK. As in previous data with DHED (FIGS. 6A-6B), male C57BL/6J mice (n=6/time point) receive 200 μg of prodrug in 0.9% (20% cyclodextrin) administered either IV or PO. Plasma and brain are collected at 5 min, 15 min, 30 min, 1 h, and 4 h after administration. PK is performed using tandem liquid chromatography-mass spectrometry (LC-MS/MS) for quantification. Pharmacokinetic analysis is performed using Phoenix WinNonLin. Non-compartmental analysis is performed to determine the following parameters: C0 (Back-extrapolated concentration at time 0); Cmax (Maximum observed concentration); Tmax (time of maximum observed concentration); AUC0-t (Area under the concentration-time curve from hour 0 to the last measurable concentration, estimated by the linear trapezoidal rule). Statistical significance is calculated using the unpaired t-test or Mann-Whitney U test for comparing AUC values. Importantly, pharmacokinetic measurements observe both the level of the prodrug and free DHED moiety in the plasma. A critical comparison is measuring the DHED levels after administration of the prodrug compared to after administration of DHED itself. […] E2 levels are measured with liquid chromatography tandem mass spectrometry (LC-MS/MS) using standard methods. […] If levels of E2 are too low to be quantified via this measure, and to distinguish naturally-produced from DHED prodrug-produced E2, E2 levels can be quantitated at the femtomole level utilizing deuterium-labelled E2 standards and triple quadrupole mass spectrometry.

[9] = chronic treatment, gonadally intact male mice + SSDS
[10] = chronic treatment (silastic implant or minipump), orchiectomized male mice + SSDS

## N#Cc1ccc(C(c2ccc(C#N)cc2)n2cncn2)cc1 [letrozole, Letrozole]
Male mice [1]; [9]
  social interaction deficits following stress: deficits in social interaction
Male mice [2]; [9]
  anhedonia following stress: induced a stress-susceptible phenotype
[3]; chronic treatment
  body weight: increased body weight
  seminal vesicle weight: increased seminal vesicle weight
  testis weight: no difference in testes weight

## N[C@@H](CCCP(=O)(O)O)C(=O)O [APV]
[4]
  oPSCs in NAc of ERβ-cre mice with ChR2 in the BLA: blocked

## C[C@]12CC[C@H]3[C@@H](CCC4=CC(=O)C=C[C@@]43O)[C@@H]1CC[C@@H]2O [DHED, 10β,17β-dihydroxyestra-1,4-dien-3-one]
Male mice [1]; [10]
  stress-induced social interaction deficits: reversed the social interaction and hedonic deficits
Male mice [2]; [10]
  stress-induced anhedonia: reversed the social interaction and hedonic deficits
[3]; chronic treatment
  body weight: did not increase; also recorded: no difference
  seminal vesicle weight: did not increase; also recorded: no difference
[3]; s.c. treatment, compared to vehicle (saline) control
  relative seminal vesicle weights: unaffected
In vivo; oral bioavailability measured in brain
  bioavailability: < 2%
In vivo; oral bioavailability measured in plasma
  bioavailability: 10%
[5]
  effects on estrogen or other hormone receptors throughout the body: no effects on estrogen or other hormone receptors
rodents
  efficacy in models of hot flushes: E2-like efficacy
[6]
  medial preoptic area PR expression: increases medial preoptic area PR expression
Galanin expression
  pituitary galanin expression: does not change
C3 expression
  uterus C3 expression: does not change

## NS(=O)(=O)c1cccc2c1c([N+](=O)[O-])cc1nc(O)c(O)nc12 [NBQX]
[4]
  oPSCs in NAc of ERβ-cre mice with ChR2 in the BLA: blocked

## CCCCCCCCCC(=O)O[C@H]1CC[C@H]2[C@@H]3CCC4=CC(=O)CC[C@]4(C)[C@H]3CC[C@]12C [Testosterone-decanoate]
[7]
  oral bioavailability of testosterone: substantially enhance the oral bioavailability

## C[C@]12CC[C@H]3[C@@H](CCC4=CC(=O)CC[C@@]43C)[C@@H]1CC[C@@H]2OC(=O)[C@@H]1CCCN1C(=O)c1ccc(S(N)(=O)=O)cn1 [EC586]
[7]
  oral bioavailability of testosterone: substantially enhance the oral bioavailability

## CC(=O)O[C@H]1CC[C@H]2[C@@H]3CCC4=CC(=O)C=C[C@]4(O)[C@H]3CC[C@]12C [Example 1.1, (8S,9S,10S,13S,14S,17S)-10-hydroxy-13-methyl-3-oxo-6,7,8,9,10,11,12,13,14,15,16,17-dodecahydro-3H-cyclopenta[a]phenanthren-17-yl acetate]
[8]; mice (n=3), 5 mg/kg solution dose, IV
  concentration level of the prodrug after IV administration: very rapidly metabolized
[8]; mice (n=3), 5 mg/kg solution dose, PO
  concentration level of the prodrug after PO administration: cannot be detected
[8]; mice, 5 mg/kg, IV or PO
  conversion of the prodrug into DHED: hydrolyzed into DHED
